Experimental data from the NIST ThermoML archive (doi:10.1021/je8009732).

Key:
[1] = 298.15 K, 101.3 kPa, Liquid; for mass density: Vibrating tube method
[2] = refractive index (Na D-line) (dimensionless); settings: 298.15 K; 101.33 kPa; Liquid; Standard Abbe refractometry
[3] = xn = mol fraction of the nth substance listed; settings: 298.15 K, 101.3 kPa, Liquid; for mass density: Vibrating tube method
[4] = refractive index (Na D-line) (dimensionless); xn = mol fraction of the nth substance listed; settings: 298.15 K, 101.3 kPa, Liquid, Standard Abbe refractometry

CCOS(=O)(=O)[O-].CC[n+]1cccc(C)c1 [1-ethyl-3-methylpyridinium ethylsulfate]
Settings | mass density [kg/m3] | refractive index | viscosity [mPa·s]
[1] | 1222.2 | – | 161.4
[2] | – | 1.50666 | –

CCOS(=O)(=O)[O-].CC[n+]1cccc(C)c1 [1-ethyl-3-methylpyridinium ethylsulfate] + CCCO
Settings | mass density, [3] [kg/m3] | refractive index, [4] | viscosity, [3] [mPa·s]
x2 = 0 | 1222.2 | 1.50666 | 161.4
x2 = 0.0863 | 1208.44 | 1.50223 | 126.4
x2 = 0.1279 | 1201.22 | 1.5002 | 112.4
x2 = 0.2201 | 1183.56 | 1.49524 | 85.83
x2 = 0.3243 | 1160.24 | 1.48866 | 62.26
x2 = 0.4177 | 1135.68 | 1.48167 | 48.86
x2 = 0.5126 | 1106.18 | 1.47321 | 34.16
x2 = 0.6093 | 1069.97 | 1.4627 | 24.62
x2 = 0.7176 | 1019.9 | 1.44818 | 16.27
x2 = 0.824 | 956.78 | 1.4297 | 9.9
x2 = 0.8834 | 913.04 | 1.41684 | 7.027
x2 = 0.9658 | 837.78 | 1.39459 | 3.411

CCCO [propan-1-ol]
Settings | mass density [kg/m3] | refractive index | viscosity [mPa·s]
[1] | 799.5 | – | 2.017
[2] | – | 1.3837 | –

CCCO [propan-1-ol] + CCOS(=O)(=O)[O-].CC[n+]1cccc(C)c1
x1 = 1
Settings | mass density [kg/m3] | refractive index | viscosity [mPa·s]
[3] | 799.5 | – | 2.017
[4] | – | 1.3837 | –
